Results on three molecules are retold here after US10881611B2, “Extracellular vesicles derived from osteoblastic lineage cells for therapeutic and diagnostic use” (Fondazione Città Della Speranza—Onlus, priority 2015, dated 2021).

In test [1] the test system is human osteosarcoma cell lines. In words: Cell viability assay (MTT) of human osteosarcoma cell lines. Format: cell-based. Here is the method: Osteosarcoma cell lines sensitivity to anti-tumour drug Doxorubicin was evaluated by treating the cells with different Doxorubicin concentrations and carrying out cell viability assay with MTT at different times.
RANKL+ O-EVs were incubated with Doxorubicin (300 mg/ml) in vitro, then subjected to FACS. RANKL+ O-EV-associated doxorubicin confers red fluorescence to the nanoparticles, enabling FACS isolation thereof (FIG. 11).
Human osteosarcoma cell lines were treated with free Doxorubicin (235 ng, corresponding to a concentration of 1 micromole/litre in the medium) or with RANKL+ O-EV-associated Doxorubicin (100,000 FACS-isolated nanoparticles, containing 3.2 ng of Doxorubicin, corresponding to a concentration of 10 nanomole/litre in the medium). […] However, the treatment with anti-tumour drug-loaded RANKL+ O-EVs allowed to obtain this effect with a Doxorubicin dose 100-fold lower than the free drug (Table 1 below).

The next test concerns mature osteoclasts. Nature of the test: Mature osteoclasts treated for 48 hours, TRAcP colouring. The format is cell-based, mouse. The source says: Primary mouse osteoclasts are obtained by medullar macrophages differentiation isolated from CD1 long bones of age comprised within 7-10 days. The litter is kept and maintained according to the legal requirements, under the supervision of a veterinary responsible. When experimentally needed, the animals are sacrificed according to the laws and the long bones are explanted and cleaned from soft tissues. The bones are then submitted to mechanical disruption in order to free the bone marrow. The cells obtained are diluted in PBS and stratified 1:1 on Histopaque (Sigma-Aldrich), and centrifuged for 30′ at 450 g. The formed buffy coat is collected and washed with PBS. […] The osteoclastic phenotype is routinely assessed by biochemical assay to tartarate resistant acidic phosphatase positivity on a cell aliquot fixed in PFA/PBS (4% v/v). […]
The sensitivity of mature osteoclasts to the antitumor medicament doxorubicin has been evaluated by treating the cells with different doxorubicin concentrations (0.1-0.2-0.5-1-2-4 μM) and carrying out TRAcP colouring after fixing. […]
The sensitivity of mature osteoclasts to the medicament zolendronate has been assessed by treating the cells with different zolendronate concentrations (10^−8, 5×10^−8, 10^−7, 5×10^−7, 10^−6, 5×10^−6, 10^−5, 5×10^−5, 10^−4 M) and carrying out TRAcP colouring after fixing. […]

The subject of another test is primary osteoblasts. Nature of the test: FACS evaluation of the RANKL-positive O-EV fraction released by osteoblasts under parathyroid hormone stimulation. Format: cell-based, murine. The settings on record: osteoblasts subjected to parathyroid hormone stimulation (10^−8 M human recombinant), p=0.037; without stimulation 53.06+3.47%. As for the experimental part: Murine osteoblasts, obtained as previously described, are plated in 150 cm^2 culture flasks and grown in DMEM culture medium containing glutamine (5 mM), penicillin (1 mg/ml), streptomycin (2 mg/ml) and American fetal bovine serum (10% v/v) (FBS), and kept in incubator under 5% CO2. Upon reaching 70% confluence, cells were abundantly washed with PBS (3 times) to remove serum residues, and kept 24 hours in glutamine (5 mM)/penicillin (1 mg/ml), streptomycin (2 mg/ml) DMEM medium. […]
At the end of the procedure, the pellet obtained is resuspended in […] PBS and incubated with 10 microM CMFDA, at 37° C. for 30 min. The pellet is then brought to maximum volume with PBS in ultra-centrifuge tube, centrifuged at 30,000 RPM for 70 minutes at 4° C., and evaluated for quantity and quality by cytofluorimetric analysis. […]
FACScanto II (BD Biosciences) was resorted to for cytofluorimetric analysis. […] Moreover, the prescribed fluorescence channel compensations are carried out. […]
For evaluation of RANKL expression, CMFDA positive RANKL+ O-EV pellet is incubated for 30 min with mouse anti-RANKL antibody conjugated with Phycoerythrin (PE) (1:100) in PBS/BSA (1%). RANKL+ O-EVs are then FACS analysed and CMFDA/PE double-positive fraction is isolated for further evaluations. […]

Where [2] appears, read: human osteosarcoma cell lines, Table 1.

For `COc1cccc2c1C(=O)c1c(O)c3c(c(O)c1C2=O)C[C@@](O)(C(=O)CO)C[C@@H]3O[C@H]1C[C@H](N)[C@H](O)[C@H](C)O1` [Doxorubicin], the “Doxorubicin concentration at which toxicity on tumour cells manifests” value in test [1] (MTT at different times, osteosarcoma cell lines) is more than 1 µmol/L. The “death of the neoplastic cells” value in test [1] (free Doxorubicin 235 ng, 1 micromole/litre in the medium) is given as “about 80%”. For the same molecule, in test [1] (setting [2]), the “Doxorubicin amount giving death of about 80% of the neoplastic cells” value is reported as 235 ng and the “Doxorubicin concentration in the medium giving death of about 80% of the neoplastic cells” value was found to be 1 µM. Moreover, the “doxorubicin concentration above which toxicity on mature osteoclasts shows” value in the test on mature osteoclasts (0.1-4 μM tested) is “higher than 0.2 micromolar”.
Consider `O=P(O)(O)C(O)(Cn1ccnc1)P(=O)(O)O` [zolendronate], for which the “zolendronate concentration above which toxicity on mature osteoclasts is shown” value in the test on mature osteoclasts (10^−8 to 10^−4 M tested) is “higher than 10^−7 M”.

B1: parathyroid hormone: human recombinant parathyroid hormone used at 10^−8 M to stimulate osteoblasts (protein, UniProt P01270 32-115, looked up)
Parathyroid hormone: SVSEIQLMHNLGKHLNSMERVEWLRKKLQDVHNFVALGAPLAPRDAGSQRPRKKEDNVLVESHEKSLGEADKADVNVLTKAKSQ
modifications: Parathyroid hormone
notes: human recombinant parathyroid hormone used at 10^−8 M to stimulate osteoblasts
As to B1, in the test with primary osteoblasts, the “RANKL-positive O-EV subpopulation” value came out at 63.6±4.20%.
